According to patent US10100058B2, “Fused heterocyclic compounds as CaM kinase inhibitors” (Gilead Sciences, Inc., priority 2016, dated 2018):

The compounds below were run against recombinant CaMKIIδ (Homo sapiens (Human), UniProt Q13557) (assay: CaMKIIδ biochemical assay (HTRF)). Conditions: 10 pM CaMKIIδ, 110 nM calmodulin, 12 μM ATP, 1 hour; read-out: CAMKIID-HTRF-384V2 (IC50 - nM).
Procedure: CaMKIIδ Biochemical Assay
The biochemical activity of recombinant CaMKIIδ was measured by monitoring the phosphorylation of a target peptide using Homogenous Time Resolved Fluorescence (HTRF) technology from CisBio Bioassays.

Row | SMILES | IC50 [nM]
1 | N[C@@H]1CC[C@H]2CCCN(C(=O)c3ccnc(-c4cnn5ccc(-c6ccccc6)nc45)c3)[C@H]21 [Example 96, ((4aR,7R,7aR)-7-aminooctahydro-1H-cyclopenta[b]pyridin-1-yl)(2-(5-phenylpyrazolo[1,5-a]pyrimidin-3-yl)pyridin-4-yl)methanone] | 12.7
2 | CCN[C@@H](C)CNC(=O)c1cc(C)nc(-c2cnn3ccc(-c4ccccc4)nc23)c1 [Example 120, (S)—N-(2-(ethylamino)propyl)-2-methyl-6-(5-phenylpyrazolo[1,5-a]pyrimidin-3-yl)isonicotinamide] | 41.8
3 | CCN(CC)[C@@H](C)CNC(=O)c1cc(-c2cnn3ccc(-c4cccs4)nc23)nc(N2CC(Oc3ccc(F)cc3)C2)c1 [Example 210, (S)—N-(2-(diethylamino)propyl)-2-(3-(4-fluorophenoxy)azetidin-1-yl)-6-(5-(thiophen-2-yl)pyrazolo[1,5-a]pyrimidin-3-yl)isonicotinamide] | 18.2
4 | CCNC(CNC(=O)c1ccnc(-c2cnn3ccc(-c4ccccc4)nc23)c1)C(C)C (stereo not drawn) [Example 55, N-(2-(ethylamino)-3-methylbutyl)-2-(5-phenylpyrazolo[1,5-a]pyrimidin-3-yl)isonicotinamide] | 12
5 | COC1CN(c2cc(C(=O)N3CC4CCC(C3)NC4)cc(-c3cnn4ccc(-c5cccs5)nc34)n2)C1 (stereo not drawn) [Example 325, (-3,6-diazabicyclo[3.2.2]nonan-3-yl)(2-(3-methoxyazetidin-1-yl)-6-(5-(thiophen-2-yl)pyrazolo[1,5-a]pyrimidin-3-yl)pyridin-4-yl)methanone] | 2.19
6 | CCN(CC)[C@@H](C)CNC(=O)c1cc(NC2COC2)nc(-c2cnn3ccc(-c4cccs4)nc23)c1 [Example 193, (S)—N-(2-(diethylamino)propyl)-2-(oxetan-3-ylamino)-6-(5-(thiophen-2-yl)pyrazolo[1,5-a]pyrimidin-3-yl)isonicotinamide] | 83.2
7 | O=C(c1ccnc(-c2cnn3ccc(-c4ccccc4)nc23)c1)N1CCCCC12CCCNC2 (stereo not drawn) [Example 68, (2-(5-phenylpyrazolo[1,5-a]pyrimidin-3-yl)pyridin-4-yl)(1,8-diazaspiro[5.5]undecan-1-yl)methanone] | 26.3
8 | COC1CN(c2cc(C(=O)NCC3(N)CCC3)cc(-c3cnn4ccc(-c5ccccc5)nc34)n2)C1 [Example 159, N-((1-aminocyclobutyl)methyl)-2-(3-methoxyazetidin-1-yl)-6-(5-phenylpyrazolo[1,5-a]pyrimidin-3-yl)isonicotinamide] | 84.6
9 | CCN(CC)[C@@H](C)CNC(=O)c1cc(-c2cnn3ccc(-c4cccs4)nc23)nc(N2CC[C@@H]2C(=O)NC)c1 [Example 290, N—((S)-2-(diethylamino)propyl)-2-((R)-2-(methylcarbamoyl)azetidin-1-yl)-6-(5-(thiophen-2-yl)pyrazolo[1,5-a]pyrimidin-3-yl)isonicotinamide] | 14.1
10 | O=C(c1ccnc(-c2cnn3ccc(-c4cccs4)nc23)c1)N1CC2CCC[C@@H](C1)NC2 [Example 77, ((1S)-3,9-diazabicyclo[3.3.2]decan-3-yl)(2-(5-(thiophen-2-yl)pyrazolo[1,5-a]pyrimidin-3-yl)pyridin-4-yl)methanone] | 2.7
11 | CCN[C@H](CC)CNC(=O)c1ccnc(-c2cnn3ccc(-c4cccs4)nc23)c1 [Example 29, (R)—N-(2-(ethylamino)butyl)-2-(5-(thiophen-2-yl)pyrazolo[1,5-a]pyrimidin-3-yl)isonicotinamide] | 7.72
12 | CCC[C@@]1(CNC(=O)c2ccnc(-c3cnn4ccc(-c5cccs5)nc34)c2)CCCN1 [Example 10, (S)—N-((2-propylpyrrolidin-2-yl)methyl)-2-(5-(thiophen-2-yl)pyrazolo[1,5-a]pyrimidin-3-yl)isonicotinamide] | 9.8
13 | O=C(NC[C@]1(CC2CC2)CCCN1)c1ccnc(-c2cnn3ccc(-c4cccs4)nc23)c1 [Example 18, (R)—N-((2-(cyclopropylmethyl)pyrrolidin-2-yl)methyl)-2-(5-(thiophen-2-yl)pyrazolo[1,5-a]pyrimidin-3-yl)isonicotinamide] | 6.51
14 | COC1CN(c2cc(C(=O)N3CC4CCC(C3)NC4)cc(-c3cnn4ccc(-c5ccccc5)nc34)n2)C1 (stereo not drawn) [Example 329, (-3,6-diazabicyclo[3.2.2]nonan-3-yl)(2-(3-methoxyazetidin-1-yl)-6-(5-phenylpyrazolo[1,5-a]pyrimidin-3-yl)pyridin-4-yl)methanone] | 14.1
15 | COC1CN(c2cc(C(=O)NC[C@H](C)N)cc(-c3cnn4ccc(-c5cccs5)nc34)n2)C1 [Example 171, (S)—N-(2-aminopropyl)-2-(3-methoxyazetidin-1-yl)-6-(5-(thiophen-2-yl)pyrazolo[1,5-a]pyrimidin-3-yl)isonicotinamide] | 18.8
16 | O=C(NC[C@@H]1C[C@H](F)CN1)c1ccnc(-c2cnn3ccc(-c4cccs4)nc23)c1 [Example 5, N-(((2S,4S)-4-fluoropyrrolidin-2-yl)methyl)-2-(5-(thiophen-2-yl)pyrazolo[1,5-a]pyrimidin-3-yl)isonicotinamide] | 12.7
17 | N[C@@H](CO)CNC(=O)c1ccnc(-c2cnn3ccc(-c4ccccc4)nc23)c1 [Example 57, (R)—N-(2-amino-3-hydroxypropyl)-2-(5-phenylpyrazolo[1,5-a]pyrimidin-3-yl)isonicotinamide] | 26.5

Further compounds by falling IC50, results first:

Row | IC50 [nM] | SMILES
18 | 4.97 | CCN[C@@H](C)CNC(=O)c1ccnc(-c2cnn3ccc(-c4cccs4)nc23)c1 [Example 20, (S)—N-(2-(ethylamino)propyl)-2-(5-(thiophen-2-yl)pyrazolo[1,5-a]pyrimidin-3-yl)isonicotinamide]
19 | 4.79 | CCCNC(CNC(=O)c1ccnc(-c2cnn3ccc(-c4ccccc4)nc23)c1)C(C)C (stereo not drawn) [Example 53, N-(3-methyl-2-(propylamino)butyl)-2-(5-phenylpyrazolo[1,5-a]pyrimidin-3-yl)isonicotinamide]
20 | 0.83 | CCN(CC)[C@@H](C)CNC(=O)c1cc(N[C@@H](C)C(N)=O)nc(-c2cnn3ccc(-c4cccs4)nc23)c1 [Example 236, 2-(((S)-1-amino-1-oxopropan-2-yl)amino)-N—((S)-2-(diethylamino)propyl)-6-(5-(thiophen-2-yl)pyrazolo[1,5-a]pyrimidin-3-yl)isonicotinamide]
21 | 0.51 | CCN(CC)[C@@H](C)CNC(=O)c1cc(-c2cnn3ccc(-c4cccs4)nc23)nc(N2CCC(C(N)=O)CC2)c1 [Example 263, (S)-2-(4-carbamoylpiperidin-1-yl)-N-(2-(diethylamino)propyl)-6-(5-(thiophen-2-yl)pyrazolo[1,5-a]pyrimidin-3-yl)isonicotinamide]
22 | 0.47 | CCN(CC)[C@@H](C)CNC(=O)c1cc(-c2cnn3ccc(-c4cccs4)nc23)nc(N2CC[C@H]2C(=O)NCC(F)F)c1 [Example 282, N—((S)-2-(diethylamino)propyl)-2-((S)-2-((2,2-difluoroethyl)carbamoyl)azetidin-1-yl)-6-(5-(thiophen-2-yl)pyrazolo[1,5-a]pyrimidin-3-yl)isonicotinamide]
23 | 0.41 | CCN(CC)[C@@H](C)CNC(=O)c1cc(-c2cnn3ccc(-c4cccs4)nc23)nc(N2CC[C@H]2C(=O)NCC2CC2)c1 [Example 278, 2-((S)-2-((cyclopropylmethyl)carbamoyl)azetidin-1-yl)-N—((S)-2-(diethylamino)propyl)-6-(5-(thiophen-2-yl)pyrazolo[1,5-a]pyrimidin-3-yl)isonicotinamide]
24 | 0.31 | CCN(CC)[C@@H](C)CNC(=O)c1cc(OCCc2cnccn2)nc(-c2cnn3ccc(-c4cccs4)nc23)c1 [Example 350, (S)—N-(2-(diethylamino)propyl)-2-(2-(pyrazin-2-yl)ethoxy)-6-(5-(thiophen-2-yl)pyrazolo[1,5-a]pyrimidin-3-yl)isonicotinamide]
25 | 0.21 | CCN(CC)[C@@H](C)CNC(=O)c1cc(NCCN2CC(F)(F)C2)nc(-c2cnn3ccc(-c4cccs4)nc23)c1 [Example 224, (S)—N-(2-(diethylamino)propyl)-2-((2-(3,3-difluoroazetidin-1-yl)ethyl)amino)-6-(5-(thiophen-2-yl)pyrazolo[1,5-a]pyrimidin-3-yl)isonicotinamide]
26 | 0.21 | CCN(CC)[C@@H](C)CNC(=O)c1cc(OCCN2CCOCC2)nc(-c2cnn3ccc(-c4cccs4)nc23)c1 [Example 352, (S)—N-(2-(diethylamino)propyl)-2-(2-morpholinoethoxy)-6-(5-(thiophen-2-yl)pyrazolo[1,5-a]pyrimidin-3-yl)isonicotinamide]
27 | 0.2 | CCN(CC)[C@@H](C)CNC(=O)c1cc(-c2cnn3ccc(-c4cccs4)nc23)nc(N2CC3(CCC3(F)F)C2)c1 [Example 249, (S)—N-(2-(diethylamino)propyl)-2-(5,5-difluoro-2-azaspiro[3.3]heptan 2 yl)-6-(5-(thiophen-2-yl)pyrazolo[1,5-a]pyrimidin-3-yl)isonicotinamide]
28 | 0.16 | CCN(CC)[C@@H](C)CNC(=O)c1cc(-c2cnn3ccc(-c4cccs4)nc23)nc(N2CC[C@H]2C(=O)N2CC(NS(C)(=O)=O)C2)c1 [Example 286, N—((S)-2-(diethylamino)propyl)-2-((S)-2-(3-(methylsulfonamido)azetidine-1-carbonyl)azetidin-1-yl)-6-(5-(thiophen-2-yl)pyrazolo[1,5-a]pyrimidin-3-yl)isonicotinamide]
29 | 0.16 | CCN(CC)[C@@H](C)CNC(=O)c1cc(-c2cnn3ccc(-c4cccs4)nc23)nc(N2CCCS2(=O)=O)c1 [Example 167, (S)—N-(2-(diethylamino)propyl)-2-(1,1-dioxidoisothiazolidin-2-yl)-6-(5-(thiophen-2-yl)pyrazolo[1,5-a]pyrimidin-3-yl)isonicotinamide]
30 | 0.05 | CCN(CC)[C@@H](C)CNC(=O)c1cc(-c2cnn3ccc(-c4cccs4)nc23)nc(N2CC[C@@H](N)C2)c1 [Example 318, 2-((R)-3-aminopyrrolidin-1-yl)-N—((S)-2-(diethylamino)propyl)-6-(5-(thiophen-2-yl)pyrazolo[1,5-a]pyrimidin-3-yl)isonicotinamide]
